Laboratory results from ChEMBL document CHEMBL3739321, “Multicomponent reaction-based synthesis and biological evaluation of tricyclic heterofused quinolines with multi-trypanosomatid activity” (Eur J Med Chem, 2015).
pIC50: −log10 of the molar value.

Tests used:
Leishmania infantum [1] = test: Potency index, ratio of potassium antimony (III) tartarate hydrate IC50 to compound IC50 for promastigote stage of Leishmania infantum MCAN/ES/92/BCN722; assay type: functional
Trypanosoma brucei = test: Potency index, ratio of nifurtimox IC50 to compound IC50 for bloodstream form of Trypanosoma brucei 221; assay type: functional
Trypanosoma cruzi = test: Potency index, ratio of benzanidazole IC50 to compound IC50 for epimastigote stage of Trypanosoma cruzi MHOM/ES/2203/BCN590; assay type: functional
L6 = test: Cytotoxicity against rat L6 cells after 6 days by resazurin staining based fluorescence plate reader assay; assay type: cell-based
Leishmania infantum [2] = test: Leishmanicidal activity against promastigote stage of Leishmania infantum MCAN/ES/92/BCN722 after 48 hrs by acid phosphatase based assay; assay type: functional, organism-based
[3] = Selectivity index, ratio of IC50 for rat L6 cells to IC50 for promastigote stage of Leishmania infantum MCAN/ES/92/BCN722; assay type: toxicity, cell-based

Molecule	Ratio IC50 (Leishmania infantum [1])	Ratio IC50 (Trypanosoma brucei)	further results
N#Cc1ccc(-c2nc3ccc(Cl)cc3c3c2CCN3)cc1	<=5		
OCCCc1cc2cc(Cl)ccc2nc1-c1cccs1	<=5		
NCc1ccc2nc(-c3ccc(Cl)cc3)c3c(c2c1)N(Cc1ccccc1)CCC3	<=5	2	
Clc1ccc2nc(-c3cccs3)c(CCCN3CCCC3)cc2c1	<=5		
N#Cc1ccc(-c2nc3ccc(Cl)cc3c3c2CCCCN3)cc1	<=5		
NCc1ccc(-c2nc3ccc(Cl)cc3c3c2CCCO3)cc1	<=5	2	
N#Cc1ccc([C@H]2Nc3ccc(Cl)cc3[C@@H]3OCCC[C@H]23)cc1	<=5		
Clc1ccc2nc(-c3cccs3)c3c(c2c1)OCCC3	<=5		
NCc1ccc(-c2nc3ccc(Cl)cc3c3c2CCCCN3)cc1	<=5	2	
CCN(CC)CCCc1cc2cc(Cl)ccc2nc1-c1cccs1	<=5		
NCc1ccc(-c2nc3ccc(Cl)cc3c3c2CCN3)cc1	<=5	2	
N#Cc1ccc(-c2nc3ccc(Cl)cc3c3c2CCCN3)cc1	<=5		
N#Cc1ccc(-c2nc3cc(Cl)ccc3cc2CCCN)cc1	<=5		
Clc1ccc2nc(-c3ccco3)c3c(c2c1)OCCC3	<=5		
N#Cc1ccc(-c2nc3ccc(Cl)cc3c3c2CCCO3)cc1	<=5		
NCc1ccc(-c2nc3cc(Cl)ccc3c3c2CCCN3)cc1	<=5	2	
N#CCCc1cc2cc(Cl)ccc2nc1-c1cccs1	<=5		
NCc1ccc(-c2nc3ccc(Cl)cc3c3c2CCCN3Cc2ccccc2)cc1	<=5	2	Ratio IC50 (Trypanosoma cruzi): 4
N#Cc1ccc(-c2nc3cc(Cl)ccc3c3c2CCCN3)cc1	<=5		
OCCCc1cc2cc(Cl)ccc2nc1-c1ccco1	<=5		
NCc1ccc(-c2nc3ccc(Cl)cc3c3c2CCCN3)cc1	<=5	2	
POTASSIUM ANTIMONYL TARTRATE TRIHYDRATE			pIC50 (L6): 5.49; pIC50 (Leishmania infantum [2]): 4.61; Ratio IC50 [3]: 0.1
